Assay results from the supplement of paper PMC9663587.

Experiments:
Assay in all cases: area over the GR curve, 72 h; higher = more effect;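 further: Dye Drop or Deep Dye Drop imaging of viable cells in 384-well plates (Hoechst nuclei, LIVE/DEAD dye), nine half-log doses, GR normalized to DMSO controls and time-zero plates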
[1] = tested on: ZR7530
[2] = tested on: BT20
[3] = tested on: HCC1806
[4] = tested on: HCC1937
[5] = tested on: HCC202
[6] = tested on: PDXHCI002
[7] = tested on: HTERT_HME1
[8] = tested on: EFM19
[9] = tested on: SUM1315
[10] = tested on: MDAMB468
[11] = tested on: UACC812
[12] = tested on: SUM159

SMILES	area over the GR curve [1] [GR]	area over the GR curve [2] [GR]	area over the GR curve [3] [GR]	area over the GR curve [4] [GR]	area over the GR curve [5] [GR]	area over the GR curve [6] [GR]	area over the GR curve [7] [GR]	area over the GR curve [8] [GR]	area over the GR curve [9] [GR]	area over the GR curve [10] [GR]	area over the GR curve [11] [GR]	area over the GR curve [12] [GR]
COc1ccc2c(c1)[C@]1(C[C@H]1c1ccc3c(/C=C/c4ccc(CN5C[C@@H](C)O[C@@H](C)C5)cc4)n[nH]c3c1)C(=O)N2	0.509	1.07	0.94	0.655	0.299	0.489	0.734	0.397	0.83	0.838	0.524	0.629
COc1cccc(OCCCN)c1-c1cc(Nc2cnc(C#N)cn2)n[nH]1	0.0681	0.973	1.39	0.55	0.332	0.045	0.596	0.041	0.809	0.227	0.0047	0.533
CC(=O)Nc1cccc(-n2c(=O)n(C3CC3)c(=O)c3c(Nc4ccc(I)cc4F)n(C)c(=O)c(C)c32)c1 (max 1 µM)	0.219	0.176	0.104	0.138	0.237	0.2	0.434	-0.1	0.389	0.213	0.686	0.347
CCc1cnn2c(NCc3ccc[n+]([O-])c3)cc(N3CCCC[C@H]3CCO)nc12 (max 1 µM)	0.713	0.672	0.643	0.475	0.406	0.584	0.552	0.459	0.766	0.568	0.151	0.465
CC(=O)c1c(C)c2cnc(Nc3ccc(N4CCNCC4)cn3)nc2n(C2CCCC2)c1=O (max 3.162 µM)	0.284	0.39	0.146	-0.0629	0.135	0.273	0.259	0.179	0.33	-0.0231	0.609	0.186
CCc1cncnc1N1CCN(Cc2nc3ccc(C(F)(F)F)cc3[nH]2)CC1 (max 10 µM)	0.0942	-0.0022	-0.0429	0.039	0.0342	-0.045	0.117	-0.0563	0.0975	0.118	0.275	0.0106
CCCCOc1c(C(=O)c2c(F)cc(C)cc2F)c[nH]c2nncc1-2 (max 10 µM)	0.481	0.84	0.455	0.917	0.359	0.108	0.862	0.497	0.872	0.516	0.886	0.466
CCN1CCN(Cc2ccc(Nc3ncc(F)c(-c4cc(F)c5nc(C)n(C(C)C)c5c4)n3)nc2)CC1 (max 10 µM)	0.546	0.569	0.392	0.102	0.277	0.764	0.428	0.478	0.582	0.176	1.04	0.372
CNc1nc(-c2ccc3c(N)n[nH]c3c2)cc(N2C[C@@H](C(=O)NC3CCCCC3)CC[C@H]2C)n1 (max 10 µM)	0.408	0.0701	0.0151	0.146	0.365	-0.0573	0.128	0.293	0.291	0.0821	0.367	0.106
CO[C@@H](C)Cn1c(=O)n(C)c2cnc3ccc(-c4cncc(C(C)(C)O)c4)cc3c21 (max 10 µM)	0.726	0.768	0.43	0.485	0.726	0.228	0.676	0.813	0.693	0.669	1.03	0.727
Cc1nn(C)c(COc2ccc(N3CCN(S(=O)(=O)N(C)C)CC3)cc2)c1-c1cccc2c(CCCOc3cccc4ccccc34)c(C(=O)O)n(CCN3CCOCC3)c12 (max 10 µM)	0.0093	-0.0396	-0.0123	0.006	-0.005	-0.05	0.339	-0.0581	-0.0531	0.0206	0.0654	-0.0068
CN(C)CC[C@H](CSc1ccccc1)Nc1ccc(S(=O)(=O)NC(=O)c2ccc(N3CCN(Cc4ccccc4-c4ccc(Cl)cc4)CC3)cc2)cc1[N+](=O)[O-] [ABT-737] (max 10 µM)	-0.0351	0.0208	-0.111	0.0829	-0.0052	0.0548	0.081	0.111	0.0822	0.086	0.276	0.0034
C=CCn1c(=O)c2cnc(Nc3ccc(N4CCN(C)CC4)cc3)nc2n1-c1cccc(C(C)(C)O)n1 [AZD1775] (max 10 µM)	0.322	0.198	0.847	0.707	0.579	0.483	0.441	0.23	1.02	0.47	0.34	0.253
CNC(=O)c1cccc(-c2ccc3c(N4CCOC[C@@H]4C)nc(N4CCOC[C@@H]4C)nc3n2)c1 [AZD2014] (max 10 µM)	0.749	0.484	0.349	0.52	0.698	0.0467	0.601	0.829	0.663	0.401	1.13	0.481
NC1(C(=O)N[C@@H](CCO)c2ccc(Cl)cc2)CCN(c2nc[nH]c3nccc2-3)CC1 [AZD5363] (max 10 µM)	0.393	0.298	0.0705	0.353	0.236	-0.085	0.188	0.304	0.144	0.135	0.2	0.177
